Data as given in patent publication US10611740B2, “Aryl dihydro-2H-benzo[b][1,4]oxazine sulfonamide and related compounds for use as agonists of RORγ and the treatment of disease” (Lycera Corporation, priority 2015, dated 2020).

Experiments:
[1] = target: T1, RORγ-LBD (Homo sapiens, UniProt P51449); experiment: RORγ-Ligand Binding Domain (LBD) TR-FRET Assay; format: biochemical;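 on TR-FRET Assay Max Response: 665/615 nm ratio relative to signal without ursolic acid or compound set at 100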
T1 construct: made in house; host or cells: SF9 cells (baculovirus)
T1 sequence (P51449 269-508 limits assumed): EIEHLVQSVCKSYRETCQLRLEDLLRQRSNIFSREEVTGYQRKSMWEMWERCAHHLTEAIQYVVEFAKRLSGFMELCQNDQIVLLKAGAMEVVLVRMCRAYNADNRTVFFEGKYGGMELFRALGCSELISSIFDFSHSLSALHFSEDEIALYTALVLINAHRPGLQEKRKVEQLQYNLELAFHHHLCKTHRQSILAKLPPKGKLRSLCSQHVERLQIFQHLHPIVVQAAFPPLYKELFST
How it was run: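 SF9 lysate containing His-RORγ-LBD, ~3 nM final; coactivator peptide biotin-SRC1 LXXLL, 200 nM final; ursolic acid 2 μM final; DMSO 1% final; Tris pH 7.0 buffer with KCl, EDTA, DTT, BSA. TR-FRET format.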

[2] = target: T2, Gal4-RORγ-LBD (Homo sapiens, UniProt P51449); experiment: Gal4-RORγ Luciferase Reporter Assay in HEK-293T Cells; format: cell-based; conditions: HEK-293 cells
T2 construct: expressed in transfected cells; host or cells: HEK-293 cells (pcDNA3.1neo plasmid)
T2 sequence (P51449 269-508 limits assumed): T1 sequence (P51449 269-508 limits assumed)
How it was run: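 In transfected HEK-293 cells (Gal4-RORγ-LBD, Gal4-luciferase), test agents with 2 μM ursolic acid were incubated overnight at 37 °C before luminescent detection. Values are relative to the ursolic-acid-free, compound-free signal (100).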

[3] = luciferase reporter, with 2 μM ursolic acid

SMILES	EC50 [1] [nM]	EC50 ([2]; 2 μM ursolic acid) [nM]	EC50 [2, 3] [nM]	TR-FRET Assay Max Response [1]	Gal4-RORγ Assay Max Response ([2]; 2 μM ursolic acid)	Gal4-RORγ Assay Max Response [2, 3]
Cc1cccc(C)c1-c1ccc2c(c1)N(S(=O)(=O)c1cccc(C(F)(F)F)c1)C[C@H](CC(C)(C)C(=O)O)O2 [Compound 32BA, (S)-3-(6-(2,6-dimethylphenyl)-4-((3-(trifluoromethyl)phenyl)-sulfonyl)-3,4-dihydro-2H-benzo[b][1,4]oxazin-2-yl)-2,2-dimethylpropanoic acid]	< 500	500 to 5000	–	*** (The symbol “***” indicates a value in the range of greater than 150 to 200)	** (The symbol “**” indicates a value in the range of greater than 90 to 150)	–
O=C(O)C1CC(=O)N(C[C@H]2CN(S(=O)(=O)c3cccc(C(F)(F)F)c3)c3cc(-c4cc(F)ccc4F)ccc3O2)C1 (stereo partly drawn) [Compound 18, 1-(((S)-6-(2,5-difluorophenyl)-4-((3-(trifluoromethyl)phenyl)sulfonyl)-3,4-dihydro-2H-benzo[b][1,4]oxazin-2-yl)methyl)-5-oxopyrrolidine-3-carboxylic acid]	< 500	500 to 5000	–	**** (The symbol “****” indicates a value greater than 200)	** (The symbol “**” indicates a value in the range of greater than 90 to 150)	–
CC(C)(C[C@H]1CN(S(=O)(=O)c2cccc(C(F)(F)F)c2)c2cc(-c3cccc(OC(F)F)c3F)ccc2O1)C(=O)O [Compound 32BJ, (S)-3-(6-(3-(difluoromethoxy)-2-fluorophenyl)-4-((3-(trifluoromethyl)phenyl)sulfonyl)-3,4-dihydro-2H-benzo[b][1,4]oxazin-2-yl)-2,2-dimethylpropanoic acid]	< 500	< 500	–	*** (The symbol “***” indicates a value in the range of greater than 150 to 200)	** (The symbol “**” indicates a value in the range of greater than 90 to 150)	–
O=C(CC[C@H]1CN(S(=O)(=O)c2cccc(C(F)(F)F)c2)c2cc(-c3cccc(F)c3F)ccc2O1)N1CCS(=O)(=O)CC1 [Compound 23N, (S)-3-(6-(2,3-difluorophenyl)-4-((3-(trifluoromethyl)-phenyl)sulfonyl)-3,4-dihydro-2H-benzo[b][1,4]oxazin-2-yl)-1-(1,1-dioxidothiomorpholino)propan-1-one]	< 500	–	< 500	**** (The symbol “****” indicates a value greater than 200)	–	*** (The symbol “***” indicates a value in the range of greater than 150 to 200)
Cc1ccc(Cl)cc1-c1ccc2c(c1)N(S(=O)(=O)c1cccc(C(F)(F)F)c1)C[C@H](CC(C)(C)C(=O)O)O2 [Compound 32AR, (S)-3-(6-(5-chloro-2-methyl-phenyl)-4-((3-(trifluoromethyl)-phenyl)sulfonyl)-3,4-dihydro-2H-benzo[b][1,4]oxazin-2-yl)-2,2-dimethylpropanoic acid]	< 500	< 500	–	** (The symbol “**” indicates a value in the range of greater than 90 to 150)	** (The symbol “**” indicates a value in the range of greater than 90 to 150)	–
O=C(NC[C@H]1CN(S(=O)(=O)c2cccc(C(F)(F)F)c2)c2cc(-c3cc(F)ccc3F)ccc2O1)C1COC1 [Compound 30Z, (S)-N-((6-(2,5-difluorophenyl)-4-((3-(trifluoromethyl)phenyl)-sulfonyl)-3,4-dihydro-2H-benzo[b][1,4]oxazin-2-yl)methyl)oxetane-3-carboxamide]	< 500	–	< 500	**** (The symbol “****” indicates a value greater than 200)	–	* (The symbol “*” indicates a value in the range of 25 to 90)
CC1(C(=O)O)CC(C[C@H]2CN(S(=O)(=O)c3cccc(C(F)(F)F)c3)c3cc(-c4cccc(C(F)(F)F)n4)ccc3O2)C1 (stereo partly drawn) [Compound 60O, (1R,3s)-1-methyl-3-(((S)-4-((3-(trifluoromethyl)phenyl)-sulfonyl)-6-(6-(trifluoro-methyl)pyridin-2-yl)-3,4-dihydro-2H-benzo[b][1,4]-oxazin-2-yl)methyl)cyclobutane-1-carboxylic acid]	< 500	< 500	–	*** (The symbol “***” indicates a value in the range of greater than 150 to 200)	** (The symbol “**” indicates a value in the range of greater than 90 to 150)	–
O=C(O)CC[C@H]1CN(S(=O)(=O)c2cccc(C(F)(F)F)c2)c2cc(-c3cccc(Cl)c3F)cc(F)c2O1 [Compound 22I, (S)-3-(6-(3-chloro-2-fluoro-phenyl)-8-fluoro-4-((3-(trifluoromethyl)phenyl)sulfonyl)-3,4-dihydro-2H-benzo[b][1,4]-oxazin-2-yl)propanoic acid]	< 500	< 500	–	*** (The symbol “***” indicates a value in the range of greater than 150 to 200)	** (The symbol “**” indicates a value in the range of greater than 90 to 150)	–
CC(C)(C[C@H]1CN(S(=O)(=O)c2cccc(C(F)(F)F)c2)c2cc(-c3cc(OC(F)F)ccc3F)ccc2O1)C(=O)O [Compound 32BI, (S)-3-(6-(5-(difluoromethoxy)-2-fluorophenyl)-4-((3-(trifluoromethyl)phenyl)sulfonyl)-3,4-dihydro-2H-benzo[b][1,4]oxazin-2-yl)-2,2-dimethylpropanoic acid]	< 500	< 500	–	*** (The symbol “***” indicates a value in the range of greater than 150 to 200)	** (The symbol “**” indicates a value in the range of greater than 90 to 150)	–
O=C(O)CC[C@H]1CN(S(=O)(=O)c2cccc(C(F)(F)F)c2)c2cc(-c3cccn4ccnc34)ccc2O1 [Compound 4J, (S)-3-(6-(imidazo[1,2-a]pyridin-8-yl)-4-((3-(trifluoromethyl)-phenyl)sulfonyl)-3,4-dihydro-2H-benzo[b][1,4]oxazin-2-yl)propanoic acid]	< 500	–	500 to 5000	**** (The symbol “****” indicates a value greater than 200)	–	** (The symbol “**” indicates a value in the range of greater than 90 to 150)

More lines, main results first:

EC50 [1] [nM]	EC50 ([2]; 2 μM ursolic acid) [nM]	EC50 [2, 3] [nM]	SMILES	TR-FRET Assay Max Response [1]	Gal4-RORγ Assay Max Response ([2]; 2 μM ursolic acid)	Gal4-RORγ Assay Max Response [2, 3]
< 500	–	500 to 5000	N#Cc1cccc(-c2ccc3c(c2)N(S(=O)(=O)c2cccc(C(F)(F)F)c2)C[C@H](CCC(=O)O)O3)c1 [Compound 2AT, (S)-3-(6-(3-cyanophenyl)-4-((3-(trifluoromethyl)phenyl)-sulfonyl)-3,4-dihydro-2H-benzo[b][1,4]oxazin-2-yl)propanoic acid]	**** (The symbol “****” indicates a value greater than 200)	–	** (The symbol “**” indicates a value in the range of greater than 90 to 150)
< 500	< 500	–	O=C(O)C1(C[C@H]2CN(S(=O)(=O)c3cccc(C(F)(F)F)c3)c3cc(-c4cc(F)cc(Cl)c4)ccc3O2)CCOCC1 [Compound 78E, (S)-4-((6-(3-chloro-5-fluoro-phenyl)-4-((3-(trifluoromethyl)-phenyl)sulfonyl)-3,4-dihydro-2H-benzo[b][1,4]oxazin-2-yl)methyl)tetrahydro-2H-pyran-4-carboxylic acid]	** (The symbol “**” indicates a value in the range of greater than 90 to 150)	** (The symbol “**” indicates a value in the range of greater than 90 to 150)	–
< 500	500 to 5000	–	CC(C)(C[C@@H]1CN(S(=O)(=O)c2cccc(C(F)(F)F)c2)c2cc(-c3cc(F)ccc3F)ccc2O1)C(=O)O [Compound 52, (R)-3-(6-(2,5-difluorophenyl)-4-((3-(trifluoromethyl)phenyl)sulfonyl)-3,4-dihydro-2H-benzo[b][1,4]oxazin-2-yl)-2,2-dimethylpropanoic Acid]	** (The symbol “**” indicates a value in the range of greater than 90 to 150)	* (The symbol “*” indicates a value in the range of 25 to 90)	–
< 500	–	< 500	C[C@H](C[C@H]1CN(S(=O)(=O)c2cccc(C(F)(F)F)c2)c2cc(-c3cc(F)cc(F)c3Cl)ccc2O1)C(=O)O [Compound 46B, (R)-3-((S)-6-(2-chloro-3,5-difluorophenyl)-4-((3-(trifluoro-methyl)phenyl)sulfonyl)-3,4-dihydro-2H-benzo[b][1,4]oxazin-2-yl)-2-methylpropanoic acid]	*** (The symbol “***” indicates a value in the range of greater than 150 to 200)	–	** (The symbol “**” indicates a value in the range of greater than 90 to 150)
< 500	–	500 to 5000	COc1ccnc(-c2ccc3c(c2)N(S(=O)(=O)c2cccc(C(F)(F)F)c2)C[C@H](CCC(=O)O)O3)c1 [Compound 4F, (S)-3-(6-(4-methoxypyridin-2-yl)-4-((3-(trifluoromethyl)-phenyl)sulfonyl)-3,4-dihydro-2H-benzo[b][1,4]oxazin-2-yl)propanoic acid]	**** (The symbol “****” indicates a value greater than 200)	–	** (The symbol “**” indicates a value in the range of greater than 90 to 150)
